# In PMC3247180, “Polyamidoamine (PAMAM) dendrimer conjugate specifically activates the A3 adenosine receptor to improve post-ischemic/reperfusion function in isolated mouse hearts” (BMC Pharmacology, 2011):
# “Also recorded” adds a separate entry of the source.
# Key:
# [1] = molecular target: hA2AAR; design: method as in PMID 19499950, PMID 20036562; conditions: ref [13],[14]; cited from earlier work
# [2] = molecular target: T1, mA1AR (Mus musculus, UniProt Q60612); experiment: cAMP functional assay (inhibition of forskolin-stimulated cAMP production), mA1AR in HEK293 cells; type: cell-based
# T1 construct: expressed in transfected cells; host or cells: HEK293
# T1 sequence (Q60612 1-326): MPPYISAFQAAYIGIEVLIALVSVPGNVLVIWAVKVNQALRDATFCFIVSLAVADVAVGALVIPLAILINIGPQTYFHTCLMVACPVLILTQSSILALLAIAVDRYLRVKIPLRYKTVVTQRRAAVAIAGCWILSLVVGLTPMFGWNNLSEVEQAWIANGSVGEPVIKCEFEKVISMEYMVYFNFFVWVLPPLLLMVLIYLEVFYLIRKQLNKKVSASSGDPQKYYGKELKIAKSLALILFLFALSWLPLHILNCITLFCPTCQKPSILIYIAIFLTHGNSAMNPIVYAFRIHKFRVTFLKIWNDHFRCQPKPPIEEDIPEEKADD
# Protocol: The assays of cAMP (3',5'-cyclic adenosine monophosphate) were performed utilizing a modified protocol published by Nordstedt and colleagues, whereby cAMP content was determined by displacement of [^3H]cAMP binding to regulatory subunits of protein kinase A in bovine adrenal extracts. HEK293 cells heterologously expressing the mA3AR were prepared by plating 2.5 × 10^5 cells per well in 24-well plates and cultured overnight in complete media (DMEM with 10% fetal bovine serum/PenStrep/0.4 mg/mL G418) at 37°C. The cells were washed with DMEM/25 mM HEPES (pH 7.4) followed by incubation in DMEM/25 mM HEPES containing 20 μM Ro 20-1274 (phosphodiesterase inhibitor), 1 U/mL ADA and a combination of two selective A2BAR antagonists (300 nM CVT-6883 and 300 nM PSB603) at 37°C for 15 min. Forskolin (20 μM) to induce cAMP production and the test compounds of interest were then simultaneously added. A concentration range of ligands or dendrimer conjugates was tested in triplicate to inhibit cAMP production via activation of A1 or A3 ARs. […] The lysates were collected and cAMP levels in the acid extract were determined by competitive binding assays as follows. […] The samples were incubated at 4°C for 2.5 hours and harvested through GF/C glass microfiber filters using a cell harvester (Brandel, Gaithersburg, MD) and counted in scintillation cocktail. […]
# [3] = molecular target: hA3AR; conditions: ref [13],[14]; cited from earlier work
# [4] = molecular target: T2, mA3AR (Mus musculus, UniProt Q61618); experiment: cAMP functional assay (inhibition of forskolin-stimulated cAMP production), mA3AR in HEK293 cells; type: cell-based
# T2 construct: expressed in transfected cells; host or cells: HEK293
# T2 sequence (Q61618 1-319): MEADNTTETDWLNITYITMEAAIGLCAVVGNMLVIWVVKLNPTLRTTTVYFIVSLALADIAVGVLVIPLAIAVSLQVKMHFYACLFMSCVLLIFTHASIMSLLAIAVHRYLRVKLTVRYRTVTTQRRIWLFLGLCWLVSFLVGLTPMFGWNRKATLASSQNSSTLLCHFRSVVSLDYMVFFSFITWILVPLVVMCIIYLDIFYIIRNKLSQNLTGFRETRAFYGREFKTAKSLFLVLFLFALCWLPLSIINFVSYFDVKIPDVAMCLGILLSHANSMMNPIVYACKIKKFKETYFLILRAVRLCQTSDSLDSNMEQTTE
# Protocol: The assays of cAMP (3',5'-cyclic adenosine monophosphate) were performed utilizing a modified protocol published by Nordstedt and colleagues, whereby cAMP content was determined by displacement of [^3H]cAMP binding to regulatory subunits of protein kinase A in bovine adrenal extracts. HEK293 cells heterologously expressing the mA3AR were prepared by plating 2.5 × 10^5 cells per well in 24-well plates and cultured overnight in complete media (DMEM with 10% fetal bovine serum/PenStrep/0.4 mg/mL G418) at 37°C. The cells were washed with DMEM/25 mM HEPES (pH 7.4) followed by incubation in DMEM/25 mM HEPES containing 20 μM Ro 20-1274 (phosphodiesterase inhibitor), 1 U/mL ADA and a combination of two selective A2BAR antagonists (300 nM CVT-6883 and 300 nM PSB603) at 37°C for 15 min. Forskolin (20 μM) to induce cAMP production and the test compounds of interest were then simultaneously added. A concentration range of ligands or dendrimer conjugates was tested in triplicate to inhibit cAMP production via activation of A1 or A3 ARs. After incubation at 37°C for 15 min, the media was aspirated, and the cells were lysed with 200 μL ice cold 0.1 M HCl on a shaker at 4°C for 30 min. The lysates were collected and cAMP levels in the acid extract were determined by competitive binding assays as follows. Each lysate sample and cAMP standard were diluted in 0.1 M HCl and subsequently transferred to polypropylene tubes (100 μL). [^3H]cAMP (12,000 cpm/100 μL water/tube) and protein extract from bovine adrenal tissue were then added (240 μg adrenal protein/tube at a concentration of 0.6 μg/μL, in the binding protein buffer: 100 mM Tris-HCl, 250 mM NaCl, 10 mM EDTA, 0.1% 2-mercaptoethanol, pH 8.0), with the extract isolated from bovine adrenal glands as described by Nordstedt, et al. to provide the cAMP binding substrate. The samples were incubated at 4°C for 2.5 hours and harvested through GF/C glass microfiber filters using a cell harvester (Brandel, Gaithersburg, MD) and counted in scintillation cocktail. […]
# [5] = tested on: isolated mouse hearts; experiment: Langendorff-perfused isolated mouse heart model of I/R (wild-type)
# Protocol: MRS5246 and MRS5233 were tested for effects on functional improvement in isolated mouse hearts subjected to global ischemia and reperfusion. The agonists were infused into the coronary circulation of the hearts for 10 min immediately before 20 min of global ischemia. The functional recovery parameters (left ventricular developed pressure [LVDP], rate of contraction [dP/dtmax], rate of relaxation [dP/dtmin], and coronary flow [CF; mL/min/g]) of the hearts were assessed throughout reperfusion and after 45 min of reperfusion and compared to those of control hearts.
# Isolated mouse heart experiments were performed as described previously. In brief, hearts were isolated from C57Bl/6J male mice and cannulated via the aorta and perfused in a retrograde fashion by Krebs-Henseleit buffer. Pressure measurements were obtained via a fluid-filled balloon inserted into the left ventricle via the mitral valve and connected to a pressure transducer. The hearts were immersed in warmed perfusion buffer to maintain the hearts at 37°C, and the balloons were inflated to achieve constant end-diastolic pressures of 5 to 10 mm Hg.
# The hearts were perfused for 20 min to achieve stabilization and then paced at 420 beats/min for baseline functional measurements. Global ischemia was achieved by closing an in-line stopcock to stop perfusion for 20 min followed by 45 min of reperfusion by re-opening the stopcock. To examine the effect of the ligands and dendrimer conjugates on functional recovery, the hearts were perfused with buffer containing the indicated concentrations of compounds for 10 min immediately before ischemia.
# All data are reported as means ± S.E.M. Functional recovery data in the isolated heart studies were analyzed by two-way repeated measures ANOVA. […] Left ventricular functional recoveries at 45 min of reperfusion were compared using one-way analysis of variance followed by Student's t test with the Bonferroni correction or an unpaired Student's t test, as appropriate. P < 0.05 was statistically significant.
# [6] = tested on: hA1AR; design: method as in PMID 19499950, PMID 20036562; conditions: at 10 μM; ref [13],[14]; cited from earlier work
# [7] = molecular target: T1, mA1AR; experiment: Radioligand ([125I]I-AB-MECA) competition binding, mA1AR; conditions: recombinant mAR on HEK293 cell membranes, Kiapp for the dendrimer conjugate, read-out: mA1AR, Ki or Kiapp
# Protocol: (§1) The competition assays were performed as previously published. Briefly, to prepare the membranes, HEK293 cells stably expressing recombinant mARs were harvested and homogenized in 10 mM Na^+-HEPES buffer (pH 7.4) with 10 mM EDTA and 0.1 mM benzamidine. The cell lysates were centrifuged (35,000 × g for 25 min; 4°C), and the pellets were resuspended in 10 mM Na^+-HEPES buffer (pH 7.4) with 1 mM EDTA and 0.1 mM benzamidine. The suspensions were homogenized and centrifuged again (35,000 × g for 25 min; 4°C). The resultant pellets were re-suspended in buffer containing 10% sucrose and stored at -80°C until use. For the radioligand binding assays, 50 μg cell membranes (100 μL) were incubated in 10 mM Na^+-HEPES buffer (pH 7.4) with 5 mM MgCl2, 5 U/mL ADA, and [^125I]I-AB-MECA as radioligand. The competing ligands of interest were added at various concentration ranges. The IC50 values were calculated using nonlinear regression analysis by fitting the data to the following equation: binding=nonspecific binding+total binding-nonspecific binding∕1+10^x-logIC50 Inhibition constant (Ki) values were calculated using the Cheng-Prusoff equation [36]. The concentration of MRS5246 reflected the concentration of the dendrimeric complex, not the individual ligand moieties. Therefore, all binding Ki values of this dendrimer are to be considered as Kiapp values.
# [8] = molecular target: T2, mA3AR; experiment: Radioligand ([125I]I-AB-MECA) competition binding, mA3AR
# Protocol: as §1
compound,measurement,setting,value
CNC(=O)[C@@]12C[C@@H]1[C@@H](n1cnc3c(NCc4cccc(Cl)c4)nc(C#CCCCCc4cn(CCNC(C)=O)nn4)nc31)[C@H](O)[C@@H]2O [MRS5233],Ki,[1],2440 ± 320 nM
same,activity at the mA1AR in cAMP assay,[2]; at 100 μM,inactive
same,inhibition of cAMP production at the A1AR,[2]; up to 0.1 mM,lacked inhibition
same,Ki,[3],22.3 ± 1.6 nM
same,agonist efficacy in cAMP assay,[4]; HEK293 cells overexpressing recombinant mARs,full agonists
same,IC50,"[4]; HEK293 cells, forskolin-stimulated",4 nM
same,EC50,"[4]; HEK293 cells, forskolin-stimulated, as printed in Figure 3, read-out: EC50, cAMP functional assay, mouse A3AR",4 ± 0.3 nM
same,recovery of LVDP throughout reperfusion vs control,[5]; 1 nM,did not; also recorded: trend in improving LVDP over control
same,recovery of rates of relaxation and contraction at 45 min reperfusion vs control,[5]; 1 nM,significantly better
same,recovery of LVDP throughout reperfusion vs control,[5]; 10 nM,significant improvement
same,recovery of rates of relaxation and contraction at 45 min reperfusion vs control,[5]; 10 nM,significantly better
same,functional recovery after 20 min ischemia/45 min reperfusion compared to control,"[5]; 1 and 10 nM (MRS5246 in Figure 6 also 0.1 nM), infused 10 min before ischemia",improved functional recovery compared to control in a concentration-dependent manner; also recorded: effective at increasing functional recovery; also recorded: significant protection starting at one nanomolar
same,inhibition of radioligand binding at hA1AR,[6],12 ± 4%
same,Ki,[7],665 ± 70 nM
same,Ki,"[8]; [125I]I-AB-MECA, recombinant mAR on HEK293 cell membranes, Kiapp for the dendrimer conjugate, read-out: mA3AR, Ki or Kiapp",3.94 ± 0.31 nM
same,fold greater affinity at mA3AR than at hA3AR,[8]; mouse Ki vs reported human Ki,5.7 fold
same,Selectivity (A1 /A3),"[8]; mouse receptors, ratio of binding Ki",169-fold
